The text below walks through data of ChEMBL document CHEMBL1201862, “PubChem BioAssay data set” (2004).

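Cells were grown in 96-well plates and exposed to each compound for 48 hours at five concentrations; endpoints were interpolated linearly between bracketing concentrations, or set to the highest concentration if not reached. GI50 is the concentration that inhibits growth by half.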 Calls of active or inactive are those of the source. No stated cut-off is given here; in the data, active = GI50 up to about 1.1 µM and inactive = higher.

Common to all, as to experiment: growth of human tumour cells (NCI), 48 h
Assay [1] relates to A498.
In assay [2] the test system is DLD-1.
The test system of assay [3] is DMS-114.
The test system of assay [4] is HCT-116.
The test system of assay [5] is HL-60.
The test system of assay [6] is HOP-62.
For assay [7], the system named is HOP-92.
In assay [8] the test system is KM12.
For assay [9], the system named is M19-MEL.
The test system of assay [10] is NCI-H23.
For assay [11], the system named is NCI-H460.
Assay [12] has as its system OVCAR-5.
Assay [13] relates to OVCAR-8.
For assay [14], the system named is SF-539.
In assay [15] the test system is SK-MEL-28.
The subject of assay [16] is SK-MEL-2.
Assay [17] concerns SN12C.
The test system of assay [18] is SNB-78.
Assay [19] has as its system U-251.
For assay [20], the system named is HOP-18.

Take `O=C(c1ccccc1)c1ccc2c(c1)N=C(c1ccc(Cl)c(Cl)c1)CC(c1ccc3ccccc3c1)N2` (configuration not stated): the GI50 in assay [1] is > 100 µM (inactive); in assay [2] it was > 100 µM (inactive); in assay [3] it was > 100 µM (inactive); in assay [4], > 100 µM (inactive); in [5] it was 69 µM (inactive); in assay [6], > 100 µM (inactive). Further, the GI50 in assay [7], in [8], in assay [9], in assay [10], in assay [11] and in assay [12] was > 100 µM (inactive) throughout. Moreover, the GI50 in [13], in [14], in assay [15], in assay [16], in [17] and in assay [18] was > 100 µM (inactive) each time. Besides, the GI50 in [19] was > 100 µM (inactive).

Turning to `CCN1CC2(CO)CCC(OC)C34C5CC6C(OC)CC(O)(C5C6OC)C(O)(C(OC)C23)C14` (configuration not stated), the GI50 in assay [1] was > 375 µM (inactive); in assay [2], 80.7 µM (inactive); in assay [3], > 375 µM (inactive); in [4] it was > 375 µM (inactive); in [5], > 375 µM (inactive); in assay [20], > 375 µM (inactive). Further, the GI50 was > 375 µM (inactive) in [6]; 168 µM (inactive) in assay [7]; > 375 µM (inactive) in assay [8]; > 375 µM (inactive) in [9]; > 375 µM (inactive) in [10]; > 375 µM (inactive) in assay [11]. Also, the GI50 in assay [12] is > 177 µM (inactive); in assay [13], > 375 µM (inactive); in assay [14] it was > 375 µM (inactive); in assay [15] it was > 375 µM (inactive); in [16], > 59.4 µM (inactive); in assay [17] it was > 375 µM (inactive). Also, the GI50 is > 375 µM (inactive) in assay [18] and > 305 µM (inactive) in assay [19].

With `O=C(Nc1cccc2c1[nH]c1c(-c3ccccc3)nccc12)c1ccccc1[N+](=O)[O-]`, the GI50 in assay [1] is 7.76 µM (inactive); in [4], 26.4 µM (inactive); in assay [5], 26.2 µM (inactive); in [20], > 100 µM (inactive); in assay [7], 2.81 µM (inactive); in assay [8] it was 9.55 µM (inactive). The GI50 in [10] is 34.7 µM (inactive); in assay [11] it was 18.6 µM (inactive); in [12], 18.6 µM (inactive); in assay [13], 24.8 µM (inactive); in assay [14] it was 20.2 µM (inactive); in assay [15], 49.5 µM (inactive). Further, the GI50 in assay [16] was 54.7 µM (inactive); in assay [17], 49.1 µM (inactive); in [18] it was 30.7 µM (inactive); in [19], 34.2 µM (inactive).

For `C=CCCC1(C)CCCNC1=S` (configuration not stated), the GI50 in assay [1], in assay [2], in assay [3], in [4], in assay [5] and in [20] was > 100 µM (inactive) throughout. Also, the GI50 in assay [6], in [7], in [8], in assay [10], in assay [11] and in assay [12] was > 100 µM (inactive) in each case. The GI50 in assay [13], in assay [14], in assay [15], in [16], in assay [17] and in [19] was > 100 µM (inactive) each time.

Take `O=CNc1cccc2c3c([nH]c12)CCCCCC3`: the GI50 in [1] is 76.6 µM (inactive); in assay [2], > 100 µM (inactive); in [3] it was > 81.5 µM (inactive); in assay [4] it was > 100 µM (inactive); in [5], > 100 µM (inactive); in assay [20], > 100 µM (inactive). Moreover, the GI50 in [6] is > 100 µM (inactive); in assay [7], 48 µM (inactive); in [8], > 100 µM (inactive); in assay [9] it was > 100 µM (inactive); in assay [10], > 100 µM (inactive); in [11] it was > 100 µM (inactive). Besides, the GI50 in [12], in assay [13], in assay [14], in assay [15], in [16] and in assay [17] was > 100 µM (inactive) each time. Also, the GI50 was > 92 µM (inactive) in assay [18] and > 100 µM (inactive) in assay [19].

Regarding `COc1ccc(C2C(C#N)=C(O)NC(O)=C2C#N)cc1OC`, the GI50 in [1], in assay [4], in assay [20], in [6], in [7] and in assay [8] was > 100 µM (inactive) throughout. For the same compound, the GI50 in assay [9], in assay [12], in [13], in assay [14], in assay [15] and in assay [16] was > 100 µM (inactive) throughout. In addition, the GI50 in assay [17], in [18] and in assay [19] was > 100 µM (inactive) in each case.

As to `CCC12CCC[C@@]13C=C[C@H](O3)C(C)(C)C2=O` (some centres not stated), the GI50 in assay [2], in assay [3], in [4], in [5], in assay [20] and in assay [6] was > 100 µM (inactive) throughout. In addition, the GI50 in [9], in assay [10], in assay [11], in assay [12], in assay [13] and in assay [14] was > 100 µM (inactive) each time. The GI50 in assay [16], in [17], in [18] and in [19] was > 100 µM (inactive) in each case.

For `CN(C)CCNCc1c2ccccc2c(CNCCN(C)C)c2ccccc12`, the GI50 in assay [1] was 27.1 µM (inactive); in assay [2] it was 29.4 µM (inactive); in assay [3], 26 µM (inactive); in assay [4], 16.5 µM (inactive); in assay [5], 20.5 µM (inactive); in [20], 44.4 µM (inactive). Further, the GI50 in [6] was 18 µM (inactive); in assay [7], 10.4 µM (inactive); in assay [8] it was 39.4 µM (inactive); in [9], 24.5 µM (inactive); in [10] it was 36 µM (inactive); in [11] it was 27 µM (inactive). The GI50 in [12] is 17.1 µM (inactive); in assay [13] it was 31.6 µM (inactive); in assay [14], 28.2 µM (inactive); in assay [15], 63.8 µM (inactive); in assay [16], 22.4 µM (inactive); in assay [17], 38.9 µM (inactive). The GI50 in assay [18] is 41.8 µM (inactive); in [19], 20.9 µM (inactive).

In the case of `Nc1nc(=O)n(C2OC(CO)C(O)C2O)cc1F` (configuration not stated), the GI50 in assay [1] is > 100 µM (inactive); in assay [2], > 100 µM (inactive); in [3], 0.0462 µM (active); in assay [4], 0.495 µM (active); in assay [5], 0.293 µM (active); in assay [20], 2.44 µM (inactive). In addition, the GI50 in [6] is 0.228 µM (active); in assay [7], 0.0755 µM (active); in assay [8], > 100 µM (inactive); in [9] it was 0.731 µM (active); in [10], 0.191 µM (active); in assay [11], 0.102 µM (active). Moreover, the GI50 in [12] was 0.855 µM (active); in assay [13] it was 0.222 µM (active); in [14], 37.4 µM (inactive); in assay [16], > 100 µM (inactive); in assay [17] it was 3.28 µM (inactive); in assay [19] it was 3.72 µM (inactive).

As for `O[C@H]1[C@H](O)[C@@H](O)CN2CC[C@H](O)[C@H]12` [CASTANOSPERMINE], the GI50 was > 100 µM (inactive) in assay [1]; > 100 µM (inactive) in [2]; > 100 µM (inactive) in [3]; > 100 µM (inactive) in assay [4]; > 39.8 µM (inactive) in assay [5]; > 100 µM (inactive) in [20]. Further, the GI50 is > 100 µM (inactive) in assay [6]; > 100 µM (inactive) in [7]; > 100 µM (inactive) in [8]; 32.8 µM (inactive) in assay [9]; > 100 µM (inactive) in assay [10]; > 100 µM (inactive) in assay [11]. For the same compound, the GI50 in assay [12] is > 100 µM (inactive); in [13], > 100 µM (inactive); in assay [14], > 100 µM (inactive); in assay [15], > 100 µM (inactive); in [16], 99.3 µM (inactive); in assay [17] it was > 100 µM (inactive). Further, the GI50 in assay [18] and in [19] was > 100 µM (inactive) throughout.
